Data reported in patent US8691758B2, “Inhibitors of serine proteases, particularly HCV NS3-NS4A protease” (Vertex Pharmaceuticals Incorporated, priority 2003, dated 2014).

Legend:
[1] = tested on: Cells containing hepatitis C virus (HCV) replicon; test: HCV replicon cell assay (Taqman RT-PCR of HCV RNA); type: cell-based; details: concentration at which 50% inhibition of HCV RNA level is observed, 48-hour incubation, 2% FBS
Procedure: HCV Replicon Cell Assay Protocol
Cells containing hepatitis C virus (HCV) replicon were maintained in DMEM containing 10% fetal bovine serum (FBS), 0.25 mg per ml of G418, with appropriate supplements (media A).
On day 1, replicon cell monolayer was treated with a trypsin:EDTA mixture, removed, and then media A was diluted into a final concentration of 100,000 cells per ml wit. 10,000 cells in 100 ul were plated into each well of a 96-well tissue culture plate, and cultured overnight in a tissue culture incubator at 37° C.
On day 2, compounds (in 100% DMSO) were serially diluted into DMEM containing 2% FBS, 0.5% DMSO, with appropriate supplements (media B). The final concentration of DMSO was maintained at 0.5% throughout the dilution series.
Media on the replicon cell monolayer was removed, and then media B containing various concentrations of compounds was added. Media B without any compound was added to other wells as no compound controls.
Cells were incubated with compound or 0.5% DMSO in media B for 48 hours in a tissue culture incubator at 37° C. At the end of the 48-hour incubation, the media was removed, and the replicon cell monolayer was washed once with PBS and stored at −80° C. prior to RNA extraction.
Culture plates with treated replicon cell monolayers were thawed, and a fixed amount of another RNA virus, such as Bovine Viral Diarrhea Virus (BVDV) was added to cells in each well. RNA extraction reagents (such as reagents from RNeasy kits) were added to the cells immediately to avoid degradation of RNA. Total RNA was extracted according the instruction of manufacturer with modification to improve extraction efficiency and consistency. Finally, total cellular RNA, including HCV replicon RNA, was eluted and stored at −80° C. until further processing.
A Taqman real-time RT-PCR quantification assay was set up with two sets of specific primers and probe. One was for HCV and the other was for BVDV. Total RNA extractants from treated HCV replicon cells was added to the PCR reactions for quantification of both HCV and BVDV RNA in the same PCR well. Experimental failure was flagged and rejected based on the level of BVDV RNA in each well. The level of HCV RNA in each well was calculated according to a standard curve run in the same PCR plate. The percentage of inhibition or decrease of HCV RNA level due to compound treatment was calculated using the DMSO or no compound control as 0% of inhibition. The IC50 (concentration at which 50% inhibition of HCV RNA level is observed) was calculated from the titration curve of any given compound.

[2] = biological target: HCV NS3-NS4A protease (tNS3 with KK4A) (Hepatitis C virus genotype 1a, UniProt P27958); test: HCV Ki assay (HPLC microbore separation of 5AB substrate and products); type: biochemical; details: 25 nM tNS3, 25 μM KK4A, 25 μM 5AB substrate, 20 min at 30 C
Procedure: HPLC Microbore Method for Separation of 5AB Substrate and Products
• NH2-Glu-Asp-Val-Val-(alpha)Abu-Cys-Ser-Met-Ser-Tyr-COOH
A stock solution of 20 mM 5 AB (or concentration of your choice) was made in DMSO w/0.2M DTT. This was stored in aliquots at −20 C.
Buffer: 50 mM HEPES, pH 7.8; 20% glycerol; 100 mM NaCl
Total assay volume was 100 μL
The buffer, KK4A, DTT, and tNS3 were combined; distributed 78 μL each into wells of 96 well plate. This was incubated at 30 C for ˜5-10 min.
2.5 μL of appropriate concentration of test compound was dissolved in DMSO (DMSO only for control) and added to each well. This was incubated at room temperature for 15 min.
Initiated reaction by addition of 20 μL of 250 μM 5AB substrate (25 μM concentration is equivalent or slightly lower than the Km for 5 AB). • Incubated for 20 min at 30 C. • Terminated reaction by addition of 25 μL of 10% TFA • Transferred 120 μL aliquots to HPLC vials
Separated SMSY product from substrate and KK4A by the following method:
Microbore Separation Method:
• Instrumentation: Agilent 1100 • Degasser G1322A • Binary pump G1312A • Autosampler G1313A • Column thermostated chamber G1316A • Diode array detector G1315A • Column: • Phenomenex Jupiter; 5 micron C18; 300 angstroms; 150×2 mm; P/O 00F-4053-B0 • Column thermostat: 40 C • Injection volume: 100 μL • Solvent A=HPLC grade water+0.1% TFA • Solvent B=HPLC grade acetonitrile+0.1% TFA
• Stop time: 17 min • Post-run time: 10 min.

HCV NS3-NS4A protease (tNS3 with KK4A), sequence (P27958 1658-1711): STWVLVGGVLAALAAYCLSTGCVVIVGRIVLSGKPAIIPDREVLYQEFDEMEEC
HCV NS3-NS4A protease (tNS3 with KK4A), sequence (P27958 1027-1208): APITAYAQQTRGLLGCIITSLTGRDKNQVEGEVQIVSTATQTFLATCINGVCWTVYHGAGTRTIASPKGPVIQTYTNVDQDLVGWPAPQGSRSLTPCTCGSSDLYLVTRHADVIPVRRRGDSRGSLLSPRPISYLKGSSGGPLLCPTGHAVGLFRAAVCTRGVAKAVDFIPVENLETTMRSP

CCC[C@H](NC(=O)[C@@H]1CC2(CN1C(=O)[C@@H](NC(=O)[C@@H](NC(=O)c1[nH]c(C)c(C)c1C(C)=O)C1CCCCC1)C(C)(C)C)SCCCS2)C(=O)C(N)=O [Compound 4a]
IC50 [1]: < 0.5 µM
Ki [2]: < 0.5 µM

CCC[C@H](NC(=O)[C@@H]1CC2(CN1C(=O)[C@@H](NC(=O)[C@@H](NC(=O)c1cnccn1)C1CCCCC1)C(C)(C)C)SCCCS2)C(=O)C(N)=O [Compound 3a]
IC50 [1]: < 0.5 µM
Ki [2]: < 0.5 µM

CCCC(NC(=O)[C@@H]1CC2(CN1C(=O)[C@@H](NC(=O)[C@@H](NC(=O)c1cnccn1)C1CCCCC1)C(C)(C)C)SCCCS2)C(=O)C(=O)NC1CC1 (stereo partly drawn) [Compound 6a]
Ki [2]: < 0.5 µM

CCC[C@H](NC(=O)[C@@H]1CC2(CN1C(=O)[C@@H](NC(=O)[C@@H](NC(=O)c1cnccn1)C1CCCCC1)C(C)(C)C)SCCCS2)C(=O)C(=O)NC1CC1 [Compound 2a, 2-(2-{2-cyclohexyl-2-[(pyrazine-2-carbonyl)-amino]-acetylamino}-3,3-dimethyl-butyryl)-6,10-dithia-2-azaspiro[4.5]decane-3-carboxylic acid(1-cyclopropylaminooxalyl-butyl)-amide]
IC50 [1]: < 0.5 µM
Ki [2]: < 0.5 µM

CCC[C@H](NC(=O)[C@@H]1CC2(CN1C(=O)[C@@H](NC(=O)[C@@H](NC(=O)c1cnccn1)C1CCCCC1)C(C)(C)C)SCCS2)C(=O)C(=O)NC1CC1 [Compound 7a]
IC50 [1]: < 0.5 µM
Ki [2]: < 0.5 µM

CCC[C@@H](NC(=O)[C@@H]1CC2(CN1C(=O)[C@@H](NC(=O)[C@@H](NC(=O)c1cnccn1)C1CCCCC1)C(C)(C)C)SCCCS2)C(=O)C(=O)NC1CC1 [Compound 5a]
Ki [2]: < 0.5 µM

CCC[C@H](NC(=O)[C@@H]1CC2(CN1C(=O)[C@@H](NC(=O)[C@@H](NC(=O)c1[nH]c(C)c(C)c1C(C)=O)C1CCCCC1)C(C)(C)C)SCCCS2)C(=O)C(=O)NC1CC1 [Compound 1a, 2-(2-{2-[(3-acetyl-4,5-dimethyl-1H-pyrrole-2-carbonyl)-amino]-2-cyclohexyl-acetylamino}-3,3-dimethyl-butyryl)-6,10-dithia-2-aza-spiro[4.5]decane-3-carboxylic acid(1-cyclopropylaminooxalyl-butyl)-amide]
IC50 [1]: < 0.5 µM
Ki [2]: < 0.5 µM
